The results in this text go back to ChEMBL document CHEMBL6096634, “Exploration of novel 20S proteasome activators featuring anthraquinone structures and their application in hypoxic cardiomyocyte protection” (Bioorg Med Chem, 2024).

Values joined by “and” are separate entries in the source; they are usually repeats but may differ in a detail not shown here. Equal entries are not always repeated. Active and inactive are the calls of the source. No cut-off for these calls is given here.

In assay [1] the target is 20S proteasome. Nature of the assay: (§1) Activation of human erythrocyte-derived 20s proteosome using CT-L as peptide substrate by fluorescence based analysis. In kind it is cell-based.
Assay [2] deals with T1, 20S proteasome (Homo sapiens) (UniProt P49721+P20618+P28074+P28062+P28065+P28072+P25786+P25787+P25788+P25789+P28066+P60900+O14818+Q8TAA3+P40306+A5LHX3+P49720+P28070+Q99436). The description is as §1. It counts as cell-based. The following applies: for EC200: filed as activator.
In assay [3] the target is T1, 20S proteasome (Homo sapiens). Nature of the assay: Activation of human erythrocyte-derived 20s proteosome using CT-L as peptide substrate at 10 uM by fluorescence based analysis relative to control. It counts as cell-based. The following applies: filed as activator.
For assay [4] the target is unchanged. Briefly: (§2) Activation of human erythrocyte-derived 20s proteosome using T-L as peptide substrate by fluorescence based analysis. It counts as cell-based. The following applies: filed as activator.
The subject of assay [5] is H9c2. Nature of the assay: Protection against hypoxia-induced cell damage in rat H9c2 cells at 0.05 uM incubated for 14 hrs by MTT assay. In kind it is functional, cell-based.
The test system of assay [6] is HEK293. Nature of the assay: Inhibition of […]-induced ER stress in HEK293 cells harbouring XBP1-delta DBD-Luc cells assessed as decrease in luciferase activity incubated for 8 hrs by […]. In kind it is functional, cell-based. The following applies: Homo sapiens, dose 10-20 µM.
The subject of assay [7] is H9c2. Briefly: Upregulation of Ki-67 expression in rat H9c2 cells at 0.25 uM under hypoxic condition by qRT-PCR analysis. In kind it is functional, cell-based. For orientation: Quantitative PCR measures a nucleic acid by following its amplification.
Assay [8] relates to H9c2. Briefly: Effect on PCNA expression in rat H9c2 cells at 0.25 uM under hypoxic condition by qRT-PCR analysis. It counts as functional, cell-based.
The test system of assay [9] is H9c2. Nature of the assay: Effect on PCNA expression in rat H9c2 cells at 0.25 uM under normoxic condition by qRT-PCR analysis. In kind it is functional, cell-based.
Assay [10] concerns H9c2. Briefly: Upregulation of Ki-67 expression in rat H9c2 cells at 0.25 uM under normoxic condition by qRT-PCR analysis. It counts as functional, cell-based.
The target of assay [11] is 20S proteasome. Briefly: (§3) Activation of human erythrocyte-derived 20s proteosome using Casp-L as peptide substrate by fluorescence based analysis. In kind it is cell-based.
Assay [12] has as its target T1, 20S proteasome (Homo sapiens). Described as §3. In kind it is cell-based. The following applies: filed as activator.
In assay [13] the target is 26S proteasome (Homo sapiens) (UniProt Q99460+P49721+P20618+P28074+P28062+P28065+P28072+O00487+P25786+P25787+P25788+P25789+P28066+P60900+O14818+Q8TAA3+P40306+A5LHX3+P49720+P28070+Q99436+Q16186+P35998+P62191+P43686+P62333+P17980+P62195+Q13200+O43242+O00232+O00231+Q15008+P51665+Q9UNM6+P55036+P48556+P60896). Nature of the assay: Activation of 26s proteosome (unknown origin). It counts as protein-complex assay.

The target in assay [14] is T1, 20S proteasome (Homo sapiens). Briefly: Activation of human erythrocyte-derived 20s proteosome assessed as fold maximum enhancement using CT-L as peptide substrate by fluorescence based analysis. In kind it is cell-based. The following applies: filed as activator.
For assay [15] the target is unchanged. Briefly: Activation of human erythrocyte-derived 20s proteosome assessed as fold maximum enhancement using Casp-L as peptide substrate by fluorescence based analysis. It counts as cell-based. The following applies: filed as activator.
For assay [16], the target named is 20S proteasome. The description is as §2. In kind it is cell-based.
The test system of assay [17] is H9c2. Nature of the assay: Protection against hypoxia-induced cell damage in rat H9c2 cells at 0.025 uM incubated for 14 hrs by MTT assay. It counts as functional, cell-based. Background: Formazan colour is commonly taken as a measure of viable cells.
Assay [18] concerns the target T1, 20S proteasome (Homo sapiens). Briefly: Activation of human erythrocyte-derived 20s proteosome assessed as fold maximum enhancement using T-L as peptide substrate by fluorescence based analysis. In kind it is cell-based. The following applies: filed as activator.
Assay [19] has the same target. Briefly: Activation of 20s proteosome (unknown origin) mediated chymotrypsin-like activity. It counts as protein-complex assay. The following applies: filed as activator.
The target is the same in assay [20]. Nature of the assay: Activation of 20s proteosome (unknown origin) mediated chymotrypsin-like activity assessed as fold maximum enhancement. It counts as protein-complex assay. The following applies: filed as activator.

As a reminder, the EC50 is the midpoint of the concentration-response curve. Lower therefore signals greater potency. In assay [1], `Cc1cccc(NC(=O)c2cc(O)c3c(c2)C(=O)c2cccc(O)c2C3=O)c1` gave an EC50 of 2260 nM. In addition, in assay [2], the EC200 worked out at 1.67 µM. The molecule further yielded an Activity in [3] of 567%. This molecule also showed a fold change (FC) in assay [4] of 6.5.

Take `CC(C)CNc1cc(Nc2ccc(N3CCOCC3)cc2)c2c3c(onc13)-c1ccccc1C2=O`: in assay [1], the EC50 was found to be 1330 nM. The molecule also came in with an EC200 in [2] of 0.12 µM. Moreover, the Activity in assay [3] is 425%. Besides, the result in assay [5] was Active. This molecule also had a fold change (FC) in assay [4] of 5.83. Further, the inhibition result in assay [6] is “Active”.

With `O=C1c2ccccc2-c2onc3c(NCN4CCCCC4)cc(NCN4CCCCC4)c1c23`, the result in assay [2] was inactive. The molecule also came in with an Activity in [3] of 78.4%.

The molecule `Cc1ccc(Nc2cc(NCC(C)C)c(N)c3c2C(=O)c2ccccc2C3=O)cc1` gave an EC50 in assay [1] of 3680 nM. In assay [2], this molecule returned an EC200 of 0.66 µM. The result in assay [7], in [5] and in assay [10] was Active. For the same molecule, the outcome in assay [8] and in assay [9] was inactive. In addition, the Activity in assay [3] worked out at 377%. Besides, the fold change (FC) in assay [4] turned out to be 5.38. Also, the inhibition result in assay [6] is “Active”.

Consider `Cc1cccc(Nc2cc(NCCN3CCOCC3)c3noc4c3c2C(=O)c2ccccc2-4)c1`, for which the outcome in [2] was inactive. In addition, the Activity in [3] came to 47.9%.

With `O=C(NCCN1CCOCC1)c1cc(O)c2c(c1)C(=O)c1cccc(O)c1C2=O`, the outcome in assay [2] was inactive. The Activity in assay [3] came out at 68.6%.

`Cc1cccc(Nc2cc(NCC(C)C)c3noc4c3c2C(=O)c2ccccc2-4)c1`: the EC50 is 1900 nM in [11]; 1830 nM and 850 nM in assay [1]; 2330 nM in [16]. The EC200 is 0.93 µM in assay [12]; 0.46 µM and 0.38 µM in assay [2]; 0.75 µM in [4]. Further, the result in assay [13] was inactive. The fold change (FC) in assay [14] amounted to 6.22; in assay [15] it was 9.77; in assay [4], 5.98; in [18] it was 4.37. The same molecule had an Activity in [3] of 472%. Besides, the result in assay [17] was Active. The inhibition result in [6] was “Active”.

In the case of `Cc1cccc(Nc2cc(NCCC(C)C)c3noc4c3c2C(=O)c2ccccc2-4)c1`, in [1], the EC50 was found to be 2090 nM. Besides, in assay [2], the EC200 was 0.19 µM. In assay [3], this molecule registered an Activity of 175%. In [4], this molecule yielded a fold change (FC) of 2.08.

For the molecule `O=C1c2cccc(O)c2C(=O)c2c(O)cc(C(=O)N3CCN(c4nccs4)CC3)cc21`, the EC50 in [1] was 3570 nM. In assay [2], this molecule returned an EC200 of 1.18 µM. Besides, in [3], the Activity was found to be 453%. Also, the fold change (FC) in assay [4] turned out to be 4.07.

For the molecule `CCOC(=O)[C@]1(c2ccccc2)N=C(c2ccc(OC)cc2)N(Cc2ccccc2)[C@@H]1c1ccc(NCc2ccccc2)cc1`, the figures for the EC200 in assay [19] and in [2] were 1.4 µM and 0.91 µM, respectively. The molecule also yielded an Activity in assay [3] of 438%. The fold change (FC) amounted to 8.3 in assay [20] and 4.31 in [4].

The molecule `COc1ccc(NC(=O)c2cc(O)c3c(c2)C(=O)c2cccc(O)c2C3=O)cc1` showed a concentration giving a half-maximal response (EC50) in assay [1] of 2050 nM. Besides, in [2], the EC200 amounted to 0.32 µM. Moreover, in assay [3], the Activity stood at 696%. Moreover, the fold change (FC) in assay [4] is 8.91.

Take `Cc1ccc(Nc2cc(NCC(C)C)c3noc4c3c2C(=O)c2ccccc2-4)cc1`: in [1], a half-maximal response (EC50) required 3000 nM. Also, in assay [2], the EC200 stood at 0.72 µM. Also, in [3], the Activity worked out at 359%. In addition, the fold change (FC) in assay [4] turned out to be 4.8.

Take `CCCNc1cc(Nc2cccc(C)c2)c2c3c(onc13)-c1ccccc1C2=O`: the response in assay [1] was half-maximal at 4360 nM (EC50). The same molecule showed an EC200 in assay [2] of 0.4 µM. This molecule showed an Activity in [3] of 594%. This molecule had a fold change (FC) in assay [4] of 10.6.

Consider `CN(CCc1ccccc1)C(=O)c1cc(O)c2c(c1)C(=O)c1cccc(O)c1C2=O`, for which the outcome in assay [2] was inactive. Besides, the Activity in assay [3] is 148%.

In the case of `CN1CCN(c2ccc(NC(=O)c3cc(O)c4c(c3)C(=O)c3cccc(O)c3C4=O)cc2)CC1`, the EC50 in assay [1] was 6120 nM. The same molecule returned an EC200 in assay [2] of 3.85 µM. In assay [3], this molecule gave an Activity of 549%. For the same molecule, the fold change (FC) in assay [4] is 7.32.

`CC(C)CNC(=O)c1cc(O)c2c(c1)C(=O)c1cccc(O)c1C2=O` showed an EC50 in [1] of 2570 nM. Further, in assay [2], the EC200 is 2.15 µM. Further, the Activity in assay [3] is 376%. The fold change (FC) in [4] amounted to 2.23.

As for `O=C(Nc1ccc(N2CCOCC2)cc1)c1cc(O)c2c(c1)C(=O)c1cccc(O)c1C2=O`, the concentration for a half-maximal effect (EC50) in assay [1] was determined as 1800 nM. This molecule also registered an EC200 in [2] of 0.2 µM. This molecule had an Activity in [3] of 552%. In assay [4], this molecule showed a fold change (FC) of 6.36. For the same molecule, the outcome in [17] was Active.

`O=C1c2cccc(O)c2C(=O)c2c(O)cc(C(=O)N3CCc4ccccc4C3)cc21` came in with an EC50 in assay [1] of 4020 nM. For the same molecule, the EC200 in assay [2] was 1.14 µM. The same molecule displayed an Activity in [3] of 350%. The fold change (FC) in assay [4] turned out to be 3.79.

For `Cc1cccc(Nc2cc(NCCO)c3noc4c3c2C(=O)c2ccccc2-4)c1`, the outcome in assay [2] was inactive. For the same molecule, the Activity in assay [3] was determined as 119%.

The molecule `COc1ccc(Nc2cc(NCC(C)C)c(N)c3c2C(=O)c2ccccc2C3=O)cc1` displayed an EC50 in assay [1] of 1570 nM. The molecule also came in with an EC200 in assay [2] of 0.61 µM. Besides, the outcome in assay [7], in assay [17] and in assay [10] was Active. Moreover, the result in [8] and in assay [9] was inactive. The molecule further displayed an Activity in [3] of 360%. Moreover, in [4], the fold change (FC) is 5.03. The inhibition entry in assay [6] is “Active”.

Take `COc1ccc(Nc2cc(NCC(C)C)c3noc4c3c2C(=O)c2ccccc2-4)cc1`: the EC50 in [1] was 3020 nM. Moreover, the EC200 in [2] is 0.7 µM. Moreover, the Activity in assay [3] is 276%. In addition, the fold change (FC) in [4] is 3.54.

Take `CC(C)CNc1cc(NC2CC2)c2c3c(onc13)-c1ccccc1C2=O`: in assay [1], the half-maximal effective concentration (EC50) is 3300 nM. The molecule also yielded an EC200 in [2] of 1.41 µM. The Activity in assay [3] was found to be 361%. The molecule further displayed a fold change (FC) in [4] of 4.71.

`O=C1c2cccc(O)c2C(=O)c2c(O)cc(C(=O)N3CCC(c4ccccc4)CC3)cc21` showed an EC50 in assay [1] of 2720 nM. In addition, the EC200 in [2] was 1.37 µM. Also, in assay [3], the Activity turned out to be 233%. This molecule also returned a fold change (FC) in assay [4] of 3.71.
